Measurements: patent publication US20200390100A1, “SUBSTITUTED N-HETEROCYCLYL- AND N-HETEROARYL-TETRAHYDROPYRIMIDINONES AND THE SALTS THEREOF, AND THE USE OF SAME AS HERBICIDAL ACTIVE SUBSTANCES” (Bayer Aktiengesellschaft, priority 2017, published 2020)

How the values were obtained:
Format in all cases: in vivo
Pharbitis purpurea = experiment: Pre-emergence herbicidal action, greenhouse, 320 g/ha; details: application rate 320 g/ha, Table B12
From the text: (§1) Seeds of monocotyledonous and dicotyledonous weed plants and crop plants were placed in plastic or organic planting pots and covered with soil. The compounds of the invention, formulated in the form of wettable powders (WP) or as emulsion concentrates (EC), were then applied to the surface of the covering soil as aqueous suspension or emulsion with addition of 0.5% additive at a water application rate equivalent to […]. After the treatment, the pots were placed in a greenhouse and kept under good growth conditions for the test plants. After about 3 weeks, the effect of the preparations is scored visually in comparison with untreated controls as percentages. For example, 100% activity=the plants have died, 0% activity=like control plants. Tables B1 to B14 below show the effects of selected compounds of the general formula (I) according to Tables I.1 to I.150 on various harmful plants and at an application rate corresponding to 320 g/ha, which were obtained by the experimental procedure mentioned above.

Veronica persica = experiment: as above; details: application rate 320 g/ha, Table B13
From the text: as §1

Polygonum convolvulus = experiment: as above; details: application rate 320 g/ha, scored visually after about 3 weeks vs untreated controls
From the text: as §1

Alopecurus myosuroides = experiment: as above; details: application rate 320 g/ha, scored visually after about 3 weeks vs untreated controls
From the text: as §1

Abutilon theophrasti [1] = experiment: as above; details: application rate 320 g/ha, scored visually after about 3 weeks vs untreated controls
From the text: as §1

Viola tricolor [2] = experiment: as above; details: application rate 320 g/ha, Table B8
From the text: as §1

Matricaria inodora [3] = experiment: as above; details: application rate 320 g/ha, scored visually after about 3 weeks vs untreated controls
From the text: as §1

Stellaria media [4] = experiment: as above; details: application rate 320 g/ha, scored visually after about 3 weeks vs untreated controls
From the text: as §1

Digitaria sanguinalis = experiment: as above; details: application rate 320 g/ha, Table B9
From the text: as §1

Amaranthus retroflexus [5] = experiment: Herbicidal post-emergence action (Part 2), 1280 g/ha; details: application rate 1280 g/ha, rated visually after about 3 weeks, Table C5
Procedure: (§2) Seeds of mono- and dicotyledonous weed plants were placed in plastic pots in sandy loam soil (doubly sown with in each case one species of mono- or dicotyledonous weed plants per pot), covered with soil and cultivated in a greenhouse under controlled growth conditions. 2 to 3 weeks after sowing, the test plants were treated at the one-leaf stage. The compounds of the invention, formulated in the form of wettable powders (WP) or as emulsion concentrates (EC), were applied onto the green parts of the plants as aqueous suspension or emulsion with addition of 0.5% additive at a water application rate of 600 liters per hectare (converted). After the test plants had been kept in the greenhouse under optimum growth conditions for about 3 weeks, the activity of the preparations was rated visually in comparison to untreated controls. For example, 100% activity=the plants have died, 0% activity=like control plants. Tables C1 to C7 below show the effects of selected compounds of the general formula (I) according to Tables 1.1 to 1.150 on various harmful plants and at an application rate corresponding to 1280 g/ha, which were obtained by the experimental procedure mentioned above.

Poa annua [6] = experiment: as above; details: application rate 1280 g/ha, rated visually after about 3 weeks, Table C2
Procedure: as §2

Echinochloa crus-galli = experiment: Herbicidal pre-emergence action (Part 2), 1280 g/ha; details: application rate 1280 g/ha, scored visually after about 3 weeks, Table D1
From the text: (§3) Seeds of mono- and dicotyledonous weed plants were placed in plastic pots in sandy loam soil (doubly sown with in each case one species of mono- or dicotyledonous weed plants per pot) and covered with soil. The compounds of the invention, formulated in the form of wettable powders (WP) or as emulsion concentrates (EC), were then applied onto the surface of the covering soil as aqueous suspension or emulsion with addition of 0.5% additive at a water application rate of 600 liters per hectare (converted). After the treatment, the pots were placed in a greenhouse and kept under good growth conditions for the test plants. After about 3 weeks, the effect of the preparations was scored visually in comparison with untreated controls as percentages. For example, 100% activity=the plants have died, 0% activity=like control plants. Tables D1 to D8 below show the effects of selected compounds of the general formula (I) according to Tables 1.1 to 1.150 on various harmful plants and at an application rate corresponding to 1280 g/ha, which were obtained by the experimental procedure mentioned above.

Amaranthus retroflexus [7] = experiment: as above; details: application rate 1280 g/ha, scored visually after about 3 weeks, Table D6
From the text: as §3

Abutilon theophrasti [8] = experiment: as above; details: application rate 1280 g/ha, scored visually after about 3 weeks, Table D5
From the text: as §3

Poa annua [9] = experiment: as above; details: application rate 1280 g/ha, scored visually after about 3 weeks, Table D3
From the text: as §3

Matricaria inodora [10] = experiment: as above; details: application rate 1280 g/ha, scored visually after about 3 weeks, Table D7
From the text: as §3

Matricaria inodora [11] = experiment: Herbicidal post-emergence action (Part 2), 1280 g/ha; details: application rate 1280 g/ha, rated visually after about 3 weeks, Table C6
Procedure: as §2

Stellaria media [12] = experiment: as above; details: application rate 1280 g/ha, rated visually after about 3 weeks, Table C7
Procedure: as §2

Stellaria media [13] = experiment: Herbicidal pre-emergence action (Part 2), 1280 g/ha; details: application rate 1280 g/ha, scored visually after about 3 weeks, Table D8
From the text: as §3

Setaria viridis [14] = experiment: as above; details: application rate 1280 g/ha, scored visually after about 3 weeks, Table D4
From the text: as §3

Amaranthus retroflexus [15] = experiment: Pre-emergence herbicidal action, greenhouse, 320 g/ha; details: application rate 320 g/ha, scored visually after about 3 weeks vs untreated controls
From the text: as §1

Setaria viridis [16] = experiment: as above; details: application rate 320 g/ha, Table B11
From the text: as §1

Amaranthus retroflexus [17] = experiment: Post-emergence herbicidal action, greenhouse, 320 g/ha; details: application rate 320 g/ha, rated visually after about 3 weeks vs untreated controls
Procedure: (§4) Seeds of monocotyledonous and dicotyledonous weeds and crop plants were placed in sandy loam in plastic or wood-fiber pots, covered with soil and cultivated in a greenhouse under controlled growth conditions. 2 to 3 weeks after sowing, the test plants were treated at the one-leaf stage. The compounds of the invention, formulated in the form of wettable powders (WP) or as emulsion concentrates (EC), were then sprayed onto the green parts of the plants as aqueous suspension or emulsion with addition of 0.5% additive at a water application rate of […] (converted). After the test plants had been kept in the greenhouse under optimum growth conditions for about 3 weeks, the activity of the preparations was rated visually in comparison to untreated controls. For example, 100% activity=the plants have died, 0% activity=like control plants. Tables A1 to A14 below show the effects of selected compounds of the general formula (I) according to Tables 1.1 to 1.150 on various harmful plants and at an application rate corresponding to 320 g/ha, which were obtained by the experimental procedure mentioned above.

Viola tricolor [18] = experiment: as above; details: application rate 320 g/ha, rated visually after about 3 weeks vs untreated controls
Procedure: as §4

Stellaria media [19] = experiment: as above; details: application rate 320 g/ha, rated visually after about 3 weeks vs untreated controls
Procedure: as §4

Setaria viridis [20] = experiment: as above; details: application rate 320 g/ha, rated visually after about 3 weeks vs untreated controls
Procedure: as §4

Avena fatua = experiment: Pre-emergence herbicidal action, greenhouse, 320 g/ha; details: application rate 320 g/ha, scored visually after about 3 weeks vs untreated controls
From the text: as §1

Compound	Pharbitis purpurea (efficacy in %) (Pharbitis purpurea) [%]	Veronica persica (efficacy in %) (Veronica persica) [%]	Polygonum convolvulus (efficacy in %) (Polygonum convolvulus) [%]	Alopecurus myosuroides (efficacy in %) (Alopecurus myosuroides) [%]	Abutilon theophrasti (efficacy in %) (Abutilon theophrasti [1]) [%]	Viola tricolor (efficacy in %) (Viola tricolor [2]) [%]	Matricaria inodora (efficacy in %) (Matricaria inodora [3]) [%]	Stellaria media (efficacy in %) (Stellaria media [4]) [%]	Digitaria sanguinalis (efficacy in %) (Digitaria sanguinalis) [%]	Amaranthus retroflexus (Amaranthus retroflexus [5]) [%]	Poa Annua (Poa annua [6]) [%]	Amaranthus retroflexus (Amaranthus retroflexus [7]) [%]	Poa Annua (Poa annua [9]) [%]	Matricaria inodora (Matricaria inodora [10]) [%]	Amaranthus retroflexus (efficacy in %) (Amaranthus retroflexus [15]) [%]	Setaria viridis (efficacy in %) (Setaria viridis [16]) [%]	Amaranthus retroflexus (efficacy in %) (Amaranthus retroflexus [17]) [%]	other results
CC(=O)OC1CCN(C)C(=O)N1C1=NOC(C)(C)C1 (stereo not shown) [I.2-709]	100	100	100	90	80	100	100	100	90									
CCCC(=O)OC1N(c2cc(C(C)(C)C)on2)C(=O)N(C)CC1(C)C (stereo not shown) [I.66-162]										100	90	90	100	100				Echinochloa crus-galli (Echinochloa crus-galli): 90%; Abutilon theophrasti (Abutilon theophrasti [8]): 100%
CC(=O)OC1CCN(C)C(=O)N1c1cc(C(C)(C)C)no1 (stereo not shown) [I.2-290, 3-(3-tert-Butyl-1,2-oxazol-5-yl)-1-methyl-2-oxohexahydropyrimidin-4-yl Acetate]										100	90	100	100	100				Matricaria inodora (Matricaria inodora [11]): 90%; Stellaria media (Stellaria media [12]): 100%; Echinochloa crus-galli (Echinochloa crus-galli): 90%; Abutilon theophrasti (Abutilon theophrasti [8]): 100%; Stellaria media (Stellaria media [13]): 100%; Setaria viridis (Setaria viridis [14]): 90%
CC(=O)OC1N(c2cc(C(C)(C)C)on2)C(=O)N(C)CC12CCC2 (stereo not shown) [I.82-162]										100	90	100	100	100				Stellaria media (Stellaria media [13]): 90%
CN1CCC(O)N(c2cc(C(F)(F)F)c(Cl)cn2)C1=O (stereo not shown) [I.1-451]			90			100	100	100	90						90	90	100	Viola tricolor (efficacy in %) (Viola tricolor [18]): 100%; Stellaria media (efficacy in %) (Stellaria media [19]): 100%; Setaria viridis (efficacy in %) (Setaria viridis [20]): 80%
CN1CCC(O)N(c2cc(C(F)(F)F)ncn2)C1=O (stereo not shown) [I.1-506]	100	80	100	90	80	100	100	100	100						90	100	100	Avena fatua (efficacy in %) (Avena fatua): 80%; Setaria viridis (efficacy in %) (Setaria viridis [20]): 100%
CN1CCC(O)N(c2cc(C(F)(F)F)c(Br)cn2)C1=O (stereo not shown) [I.1-464]	100	100	100	80	100	100	100	100	100						100	100	100	Avena fatua (efficacy in %) (Avena fatua): 80%; Viola tricolor (efficacy in %) (Viola tricolor [18]): 100%; Stellaria media (efficacy in %) (Stellaria media [19]): 90%
